Drawing on patent US20240043404A1 (AbbVie Inc., priority 2009, published 2024), this text covers EC50 for 18 compounds.

pEC50: −log10 of the molar value.

The first assay deals with RS4;11 cells. The assay can be described thus: RS4;11 cell viability assay (CellTiter Glo).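 Note: acute lymphoblastic leukemia line RS4,11, EC50 derived from percentage of viable cells after treatment relative to untreated controls, cell killing taken as a measure of Bcl-2 inhibition.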 The format is cell-based, human. The conditions noted are these: Homo sapiens, RS4-11, 48 h, 50,000 cells per well, 10% human serum, 48 hours; read-out: RS4; 11 EC50 Values. Background: ATP-based viability assays read luminescence as a measure of living cells.
Protocol: The acute lymphoblastic leukemia (ALL) cell line RS4;11 was used as the primary human cell line to assess the cellular activity of Bcl-2 selective agents in vitro and their efficacy in vivo.
Cell cytotoxicity EC50 values were assessed using CellTiter Glo (Promega) according to the manufacturer's recommendations. The EC50 values were determined as a percentage of viable cells following treatment compared to the untreated control cells.
`CC1(C)CCC(CN2CCN(c3ccc(C(=O)NS(=O)(=O)c4ccc(NCc5cccc(OC(F)(F)F)c5)c([N+](=O)[O-])c4)c(Oc4cnc5[nH]ccc5c4)c3)CC2)=C(c2ccc(Cl)cc2)C1` [Example 175, 4-(4-{[2-(4-chlorophenyl)-4,4-dimethylcyclohex-1-en-1-yl]methyl}piperazin-1-yl)-N-[(3-nitro-4-{[3-(trifluoromethoxy)benzyl]amino}phenyl)sulfonyl]-2-(1H-pyrrolo[2,3-b]pyridin-5-yloxy)benzamide]: the pEC50 is less than 6.00.

`CC1(C)CCC(CN2CCN(c3ccc(C(=O)NS(=O)(=O)c4ccc(NCC5CN(CC(F)F)CCO5)c([N+](=O)[O-])c4)c(Oc4cnc5[nH]ccc5c4)c3)CC2)=C(c2ccc(Cl)cc2)C1` (centres unmarked) [Example 166, 4-(4-{[2-(4-chlorophenyl)-4,4-dimethylcyclohex-1-en-1-yl]methyl}piperazin-1-yl)-N-{[4-({[4-(2,2-difluoroethyl)morpholin-2-yl]methyl}amino)-3-nitrophenyl]sulfonyl}-2-(1H-pyrrolo[2,3-b]pyridin-5-yloxy)benzamide]: the pEC50 was 7.93.

Turning to `CN1CCOC(CNc2ccc(S(=O)(=O)NC(=O)c3ccc(N4CCN(CC5=C(c6ccc(Cl)cc6)CC(C)(C)CC5)CC4)cc3Oc3cnc4[nH]ccc4c3)cc2[N+](=O)[O-])C1` (centres unmarked) [Example 134, 4-(4-{[2-(4-chlorophenyl)-4,4-dimethylcyclohex-1-en-1-yl]methyl}piperazin-1-yl)-N-[(4-{[(4-methylmorpholin-2-yl)methyl]amino}-3-nitrophenyl)sulfonyl]-2-(1H-pyrrolo[2,3-b]pyridin-5-yloxy)benzamide], the pEC50 was 8.60.

In the case of `CC1(C)CCC(CN2CCN(c3ccc(C(=O)NS(=O)(=O)c4ccc(N[C@H]5CCCN(C6CCOCC6)C5)c([N+](=O)[O-])c4)c(Oc4cnc5[nH]ccc5c4)c3)CC2)=C(c2ccc(Cl)cc2)C1` [Example 105, 4-(4-{[2-(4-chlorophenyl)-4,4-dimethylcyclohex-1-en-1-yl]methyl}piperazin-1-yl)-N-[(3-nitro-4-{[(3S)-1-tetrahydro-2H-pyran-4-ylpiperidin-3-yl]amino}phenyl)sulfonyl]-2-(1H-pyrrolo[2,3-b]pyridin-5-yloxy)benzamide], the pEC50 is 7.27.

As for `CC1(C)CCC(CN2CCN(c3ccc(C(=O)NS(=O)(=O)c4ccc(NC5CN(C(CF)CF)C5)c([N+](=O)[O-])c4)c(Oc4cnc5[nH]ccc5c4)c3)CC2)=C(c2ccc(Cl)cc2)C1` [Example 151, 4-(4-{[2-(4-chlorophenyl)-4,4-dimethylcyclohex-1-en-1-yl]methyl}piperazin-1-yl)-N-{[4-({1-[2-fluoro-1-(fluoromethyl)ethyl]azetidin-3-yl}amino)-3-nitrophenyl]sulfonyl}-2-(1H-pyrrolo[2,3-b]pyridin-5-yloxy)benzamide], the pEC50 is 7.47.

Turning to `CC1(C)CCC(CN2CCN(c3ccc(C(=O)NS(=O)(=O)c4cnc(OC[C@@H]5C[C@H]6C[C@@H]5C[C@@]6(C)O)c(Cl)c4)c(Oc4cnc5[nH]ccc5c4)c3)CC2)=C(c2ccc(Cl)cc2)C1` [Example 339, N-[(5-chloro-6-{[(1R,2R,4R,5R)-5-hydroxy-5-methylbicyclo[2.2.1]hept-2-yl]methoxy}pyridin-3-yl)sulfonyl]-4-(4-{[2-(4-chlorophenyl)-4,4-dimethylcyclohex-1-en-1-yl]methyl}piperazin-1-yl)-2-(1H-pyrrolo[2,3-b]pyridin-5-yloxy)benzamide], the pEC50 is 6.35.

In the case of `COCCOCCN1CCOC(CNc2ccc(S(=O)(=O)NC(=O)c3ccc(N4CCN(CC5=C(c6ccc(Cl)cc6)CC(C)(C)CC5)CC4)cc3Oc3cnc4[nH]ccc4c3)cc2[N+](=O)[O-])C1` (centres unmarked) [Example 213, 4-(4-{[2-(4-chlorophenyl)-4,4-dimethylcyclohex-1-en-1-yl]methyl}piperazin-1-yl)-N-({4-[({4-[2-(2-methoxyethoxy)ethyl]morpholin-2-yl}methyl)amino]-3-nitrophenyl}sulfonyl)-2-(1H-pyrrolo[2,3-b]pyridin-5-yloxy)benzamide], the pEC50 is 8.21.

Consider `CC1(C)CCC(CN2CCN(c3ccc(C(=O)NS(=O)(=O)c4cnc(OCC5CCOCC5)c(F)c4)c(Oc4cnc5[nH]ccc5c4)c3)CC2)=C(c2ccc(Cl)cc2)C1` [Example 293, 4-(4-{[2-(4-chlorophenyl)-4,4-dimethylcyclohex-1-en-1-yl]methyl}piperazin-1-yl)-N-{[5-fluoro-6-(tetrahydro-2H-pyran-4-ylmethoxy)pyridin-3-yl]sulfonyl}-2-(1H-pyrrolo[2,3-b]pyridin-5-yloxy)benzamide], for which the pEC50 was 6.54.

As to `CC1(C)CCC(CN2CCN(c3ccc(C(=O)NS(=O)(=O)c4ccc(OCC5CCC6(CC5)COC6)c([N+](=O)[O-])c4)c(Oc4cnc5[nH]ccc5c4)c3)CC2)=C(c2ccc(Cl)cc2)C1` [Example 351, 4-(4-{[2-(4-chlorophenyl)-4,4-dimethylcyclohex-1-en-1-yl]methyl}piperazin-1-yl)-N-{[3-nitro-4-(2-oxaspiro[3.5]non-7-ylmethoxy)phenyl]sulfonyl}-2-(1H-pyrrolo[2,3-b]pyridin-5-yloxy)benzamide], the pEC50 was 8.69.

For the compound `CC1(C)CCC(CN2CCN(c3ccc(C(=O)NS(=O)(=O)c4ccc(NCC5(N)CCOCC5)c([N+](=O)[O-])c4)c(Oc4cnc5[nH]ccc5c4)c3)CC2)=C(c2ccc(Cl)cc2)C1` [Example 108, N-[(4-{[(4-aminotetrahydro-2H-pyran-4-yl)methyl]amino}-3-nitrophenyl)sulfonyl]-4-(4-{[2-(4-chlorophenyl)-4,4-dimethylcyclohex-1-en-1-yl]methyl}piperazin-1-yl)-2-(1H-pyrrolo[2,3-b]pyridin-5-yloxy)benzamide], the pEC50 was 7.62.

For the compound `CC1(C)CCC(CN2CCN(c3ccc(C(=O)NS(=O)(=O)c4ccc(NC[C@H]5CC[C@H](C#N)CC5)c([N+](=O)[O-])c4)c(Oc4cnc5[nH]ccc5c4)c3)CC2)=C(c2ccc(Cl)cc2)C1` [Example 276, 4-(4-{[2-(4-chlorophenyl)-4,4-dimethylcyclohex-1-en-1-yl]methyl}piperazin-1-yl)-N-[(4-{[(trans-4-cyanocyclohexyl)methyl]amino}-3-nitrophenyl)sulfonyl]-2-(1H-pyrrolo[2,3-b]pyridin-5-yloxy)benzamide], the pEC50 is 8.46.

As to `CC1(C)CCC(CN2CCN(c3ccc(C(=O)NS(=O)(=O)c4cnc(NCC5CCOCC5)c(C#N)c4)c(Oc4cnc5[nH]ccc5c4)c3)CC2)=C(c2ccc(Cl)cc2)C1` [Example 106, 4-(4-{[2-(4-chlorophenyl)-4,4-dimethylcyclohex-1-en-1-yl]methyl}piperazin-1-yl)-N-({5-cyano-6-[(tetrahydro-2H-pyran-4-ylmethyl)amino]pyridin-3-yl}sulfonyl)-2-(1H-pyrrolo[2,3-b]pyridin-5-yloxy)benzamide], the pEC50 is 6.08.

As to `CC1(C)CCC(CN2CCN(c3ccc(C(=O)NS(=O)(=O)c4ccc(N[C@H]5CC[C@@H](N6CCOCC6)CC5)c([N+](=O)[O-])c4)c(Oc4cnc5[nH]ccc5c4)c3)CC2)=C(c2ccc(Cl)cc2)C1` [Example 39, Cis-4-(4-{[2-(4-chlorophenyl)-4,4-dimethylcyclohex-1-en-1-yl]methyl}piperazin-1-yl)-N-({4-[(4-morpholin-4-ylcyclohexyl)amino]-3-nitrophenyl}sulfonyl)-2-(1H-pyrrolo[2,3-b]pyridin-5-yloxy)benzamide], the pEC50 is 7.70.

For the compound `CC1(C)CCC(CN2CCN(c3ccc(C(=O)NS(=O)(=O)c4ccc(NCCCN(C5CC5)C5COC5)c([N+](=O)[O-])c4)c(Oc4cnc5[nH]ccc5c4)c3)CC2)=C(c2ccc(Cl)cc2)C1` [Example 311, 4-(4-{[2-(4-chlorophenyl)-4,4-dimethylcyclohex-1-en-1-yl]methyl}piperazin-1-yl)-N-{[4-({3-[cyclopropyl(oxetan-3-yl)amino]propyl}amino)-3-nitrophenyl]sulfonyl}-2-(1H-pyrrolo[2,3-b]pyridin-5-yloxy)benzamide], the pEC50 was 7.45.

As for `CC1(C)CCC(CN2CCN(c3ccc(C(=O)NS(=O)(=O)c4ccc(OCC5(F)CCN(C6COC6)CC5)c(Cl)c4)c(Oc4cnc5[nH]ccc5c4)c3)CC2)=C(c2ccc(Cl)cc2)C1` [Example 322, N-[(3-chloro-4-{[4-fluoro-1-(oxetan-3-yl)piperidin-4-yl]methoxy}phenyl)sulfonyl]-4-(4-{[2-(4-chlorophenyl)-4,4-dimethylcyclohex-1-en-1-yl]methyl}piperazin-1-yl)-2-(1H-pyrrolo[2,3-b]pyridin-5-yloxy)benzamide], the pEC50 was 7.91.

Take `CC1(C)CCC(CN2CCN(c3ccc(C(=O)NS(=O)(=O)c4ccc(N[C@H]5CC[C@H](NC6CCOCC6)CC5)c([N+](=O)[O-])c4)c(Oc4cnc5[nH]ccc5c4)c3)CC2)=C(c2ccc(Cl)cc2)C1` [Example 123, Trans-4-(4-{[2-(4-chlorophenyl)-4,4-dimethylcyclohex-1-en-1-yl]methyl}piperazin-1-yl)-N-[(3-nitro-4-{[4-(tetrahydro-2H-pyran-4-ylamino)cyclohexyl]amino}phenyl)sulfonyl]-2-(1H-pyrrolo[2,3-b]pyridin-5-yloxy)benzamide]: the pEC50 is 8.48.

In the case of `CC1(C)CCC(CN2CCN(c3ccc(C(=O)NS(=O)(=O)c4ccc(OC[C@H]5CC[C@H](N6CCOCC6)CC5)c(Cl)c4)c(Oc4cnc5[nH]ccc5c4)c3)CC2)=C(c2ccc(Cl)cc2)C1` [Example 303, N-[(3-chloro-4-{[trans-4-(morpholin-4-yl)cyclohexyl]methoxy}phenyl)sulfonyl]-4-(4-{[2-(4-chlorophenyl)-4,4-dimethylcyclohex-1-en-1-yl]methyl}piperazin-1-yl)-2-(1H-pyrrolo[2,3-b]pyridin-5-yloxy)benzamide], the pEC50 is 7.32.

Turning to `COCCNc1ccc(S(=O)(=O)NC(=O)c2ccc(N3CCN(CC4=C(c5ccc(Cl)cc5)CC(C)(C)CC4)CC3)cc2Oc2ccc3[nH]ccc3c2)cc1[N+](=O)[O-]` [Example 20, 4-(4-{[2-(4-chlorophenyl)-4,4-dimethylcyclohex-1-en-1-yl]methyl}piperazin-1-yl)-2-(1H-indol-5-yloxy)-N-({4-[(2-methoxyethyl)amino]-3-nitrophenyl}sulfonyl)benzamide], the pEC50 is 6.72.

The assay is the same for the next values; noted with them: Homo sapiens, RS4-11, Table 4, selected compounds in U.S. Pat. Application No. 12/631404; read-out: RS4; 11 EC50.
Turning to `COCCNc1ccc(S(=O)(=O)NC(=O)c2ccc(N3CCN(CC4=C(c5ccc(Cl)cc5)CC(C)(C)CC4)CC3)cc2Oc2ccc3[nH]ccc3c2)cc1[N+](=O)[O-]` [Example 20, 4-(4-{[2-(4-chlorophenyl)-4,4-dimethylcyclohex-1-en-1-yl]methyl}piperazin-1-yl)-2-(1H-indol-5-yloxy)-N-({4-[(2-methoxyethyl)amino]-3-nitrophenyl}sulfonyl)benzamide], the pEC50 is 6.72.

Staying with this assay, now noted: Homo sapiens, RS4-11, Table 5, direct comparison Z=N with corresponding analogs Z=C; read-out: RS4; 11 EC50.
Consider `COCCNc1ccc(S(=O)(=O)NC(=O)c2ccc(N3CCN(CC4=C(c5ccc(Cl)cc5)CC(C)(C)CC4)CC3)cc2Oc2ccc3[nH]ccc3c2)cc1[N+](=O)[O-]` [Example 20, 4-(4-{[2-(4-chlorophenyl)-4,4-dimethylcyclohex-1-en-1-yl]methyl}piperazin-1-yl)-2-(1H-indol-5-yloxy)-N-({4-[(2-methoxyethyl)amino]-3-nitrophenyl}sulfonyl)benzamide], for which the pEC50 was 6.72.
